{"source": "patent US20110117055A1", "about": "“Methods of Treating Hepatitis C Virus with Oxoacetamide Compounds” (priority 2009, published 2011)", "key": {"HCV2aChLuc virus": {"tested_on": "HCV2aChLuc virus", "assay": "In vitro HCVcc entry assay: HCV2aChLuc virus infection of Huh7 cells, Renilla luciferase read-out", "type": "cell-based, HCV genotype 2a", "conditions": "for IC50: Hepatitis C virus"}, "[1]": {"tested_on": "Bovine viral diarrhea virus (BVDV)", "assay": "BVDV plaque-forming assay in MDBK cells", "type": "cell-based", "conditions": "even at 1 μM", "experimental": "Bovine viral diarrhea virus (BVDV) is a closely related virus to HCV, belonging to the same Family, Flaviviridae. To validate the specificity of antiviral activity, BVDV infection was done with MDBK cells in the presence of compounds provided herein. MDBK cells (70 to 80% confluent) were infected with a diluted virus. Following 1 h of adsorption at 37° C., cells were washed once with DMEM, overlaid with 1.5% low-melting-point (LMP) agarose (Gibco-BRL) in MEM containing 5% HS, and incubated at 37° C. To assay for plaque-forming virus, after 3 days monolayers were fixed with 3.7% formaldehyde for 2 h at room temperature, the agarose plugs were removed, and the monolayers were stained with crystal violet."}, "Jc1-luc virus": {"tested_on": "Jc1-luc virus", "assay": "Luciferase compound activity assay, Jc1-luc virus in Huh7.5.1 cells", "type": "cell-based, HCV genotype-2a", "conditions": "Hepatitis C virus, Huh-7.5.1", "experimental": "Cell culture. Human hepatoma Huh-7.5.1 cells or Huh7 cells were grown at 37° C. and 5% CO2 in Dulbecco's modification of Eagle's medium supplemented with 2 mM L-glutamine, 1 mM Sodium pyruvate, 1× Non-essential amino acids mix, 100 units/ml penicillin, 100 μg/ml streptomycin, and 10% fetal bovine serum.\nVirus plasmids. The chimeric full-length construct pFL-JC1, a GT2a/2a chimera consisting of structural genes from the J6CF isolate and non-structural genes from the JFH1 isolate, has been described previously. See Backes et al., J. Virol. 2010, 84:5775-89; Schaller et al., J. Virol., 2007, 81:4591-603; Koutsoudakis et al., J. Virol. 2006, 80:5308-20; Pietschmann et al., Proc. Natl. Acad. Sci., 2006, 103:7408-13. The firefly luciferase gene has been inserted to pFL-Jc1 to develop a plamid pFL-Jc1-luc for use as a reporter of viral replication. See Amako et al., J. Virol. 2009, 83:9237-46. Specifically, the pFL-JC1-luc construct can be utilized to develop an infectious HCV cell culture system to test novel HCV inhibitors, including entry inhibitors, in vitro using luciferase expression.\nPreparation of infectious HCV. Jc1-luc or HCV2a/2aChRluc RNA was in vitro transcribed using T7 RiboMAX™ Express Large Scale RNA Production System (Promega). After RNA clean up (Qiagen RNeasy Mini kit), transfection was performed as previously described.\n400 microliters of a Huh-7.5.1 or Huh7 cell suspension (10^7 cells/ml) was placed in a 0.4-cm cuvette with 10 μg of Jc1-luc or HCV2a/2aChRluc RNA and electroporated (Bio-Rad Gene Pulser System) using a single square wave at 260 V and 25 ms pulse length. The cells were plated in 15-cm tissue culture dishes (Corning) and supernatant was harvested and concentrated using a centrifugal filter (Amicon 100K, Millipore).\nLuciferase compound activity assay. Cell culture and luciferase compound assays were performed as previously described. See Wyles et al., J. Virol. 2007, 81:3005-8; Wyles et al., Antimicrob Agents Chemother. 2009, 53:2660-2; Grünberger et al., J. Infect. Dis. 2008, 197:42-5; Wyles et al., Antimicrob Agents Chemother, 2008, 52:1862-4. Briefly, Huh7.5.1 cells were seeded into 96-well plates at a density of 10,000 cells per well in 100 μl medium. After incubating overnight for attachment, Jc1-luc virus at an MOI 0.01 was added to wells with or without compounds at the specified concentrations. All conditions were run in triplicate. After 24 hours, medium was aspirated and replaced with 100 μl of complete medium containing an identical concentration of compound(s) followed by additional 48 hour incubation. The luciferase assay (Bright-Glo; Promega) was carried out according to the manufacturer's instructions. Luciferase activity was determined using a microplate luminometer (Veritas microplate luminometer; Turner Biosystems). […]"}, "HCV": {"tested_on": "HCV", "assay": "Combination of viral entry inhibitor with IFN-α, HCVcc infection system, luciferase assay", "type": "cell-based", "conditions": "Huh7 cells, 72 hrs", "experimental": "The current standard of care for the treatment of chronic hepatitis C is the combination of pegylated IFN-α (interferon-alpha) and ribavirin. […] Huh7 cells were incubated with various concentrations of Compound 1 or interferon alone, or combinations of both for 72 hrs, and the anti-HCV activity was measured by luciferase assays. The same was experiment was performed for Compound 5."}, "SR-B1 pathway": {"tested_on": "SR-B1 pathway", "conditions": "human subjects; cited from earlier work"}, "[2]": {"assay": "Cytotoxicity of anti-HCV compounds (CC50, Table 4)", "conditions": "human, Huh7.5.1 cells"}, "[3]": {"tested_on": "HCV1a chimeric virus and 2a chimeric virus", "assay": "Combination of viral entry inhibitor with ribavirin", "type": "cell-based, HCV", "conditions": "ribavirin 15 μM", "experimental": "Varying amounts of each compound were coincubated with a high concentration of ribavirin (15 μM)."}, "HCV2a/2aChRluc virus": {"tested_on": "HCV2a/2aChRluc virus", "assay": "Compound 5 with ribavirin or VX950 in the HCV2a/2aChRluc system", "type": "cell-based, HCV genotype 2a", "experimental": "100 μl of serially diluted compound solutions (100, 30, 10, 3, 1, 0.3, and 0.1 nM) was inoculated onto Huh-7 cells in a 96-well plate. Subsequently, 100 ul (TCID50, ˜0.6) of HCV2a/2aChRluc virus was added onto the cells. After co-incubation for 72 hrs, Renilla luciferase expression was determined (Renilla Luciferase Assay, Promega) and reported as relative light units (RLU).\nData analysis. Determinations of compound interactions were quantified based on the median-effect principle described by Chou and Talalay. Chou T., Talalay P., Adv. Enzyme. Regul., 1984, 22:27-55. Combination indices (CIs) were determined using Calcusyn (Biosoft) for each experiment at the EC50, EC75, and EC90 levels. Five replicates per condition were evaluated. A CI<0.9 was considered synergistic, a CI≧0.9 and ≦[…] was considered additive, and a CI>1.1 was deemed antagonistic."}}, "note": "“Also recorded” adds a separate entry of the source. Read-outs that look alike come from different tables or passages of the source."}
{"smiles": "COc1c(NC(=O)C(=O)c2ccc(OCCN3CCOCC3)c3ccccc23)cc(C(C)(C)C)cc1NS(C)(=O)=O", "note": "[Compound 5, N-(5-tert-butyl-2-methoxy-3-(methylsulfonamido)phenyl)-2-(4-(2-morpholinoethoxy)naphthalen-1-yl)-2-oxoacetamide]", "values": [{"measurement": "IC50", "setting": "HCV2aChLuc virus; Huh-7, 72 h, read-out: observed IC50, Huh7 cells co-incubated with HCV2aChRluc virus and compound for 3 days, repeated assays (n>30)", "result": "0.05 to 0.5", "unit": "nM"}, {"measurement": "IC50", "setting": "HCV2aChLuc virus; Huh-7, read-out: Activity class (IC50), tested according to the method of Example 3", "result": "< 5", "unit": "nM"}, {"measurement": "inhibitory effect on HCV2aChLuc viral entry", "setting": "HCV2aChLuc virus; Huh7 cells, 3 days", "result": "dose-dependent inhibitory effect; also recorded: dose-dependent inhibition"}, {"measurement": "inhibitory effect on BVDV infection", "setting": "[1]", "result": "No significant inhibitory effect"}, {"measurement": "EC50", "setting": "Jc1-luc virus", "result": "20.2 ± 1.37", "unit": "nM"}, {"measurement": "effect of combination with IFN-α on inhibition of HCV infection in cell culture", "setting": "HCV", "result": "additive to moderate synergistic effect"}, {"measurement": "HDL levels", "setting": "SR-B1 pathway", "result": "raised HDL levels"}, {"measurement": "CC50", "setting": "[2]", "result": "> 100000", "unit": "nM"}, {"measurement": "effect of combination with ribavirin", "setting": "[3]", "result": "no antagonistic effect"}, {"measurement": "interaction with VX-950", "setting": "HCV2a/2aChRluc virus; HCV2a/2aCHRLuc system", "result": "consistent synergy"}, {"measurement": "effect of combination with ribavirin", "setting": "HCV2a/2aChRluc virus; ribavirin 15 μM", "result": "no antagonistic effect"}]}
